Results reported in article PMC4685510, “A Cell Biologist’s Field Guide to Aurora Kinase Inhibitors” (Frontiers in Oncology, 2015).

Assays:
Assay in all cases: biochemical
Type in all cases: biochemical
[1] = target: 363 human kinases (including Aurora A/B/C) (Homo sapiens, UniProt P22694); settings: PKAcb; for remaining activity at 0.1 µM: 100 nM; for remaining activity at 0.1 µM / remaining activity at 0.5 µM: read-out: % Enzyme Activity (relative to DMSO controls)
Source text: (§1) However, the Aurora A/B selectivity ratios derived from our in vitro and in vivo data can be compared to prioritize inhibitors.

[2] = target: T1, 363 human kinases (including Aurora A/B/C) (Homo sapiens, UniProt Q9H2K8); settings: TAOK3/JIK; for remaining activity at 0.1 µM: 100 nM; for remaining activity at 0.1 µM / remaining activity at 0.5 µM: read-out: % Enzyme Activity (relative to DMSO controls)
T1 sequence (Q9H2K8 1-898): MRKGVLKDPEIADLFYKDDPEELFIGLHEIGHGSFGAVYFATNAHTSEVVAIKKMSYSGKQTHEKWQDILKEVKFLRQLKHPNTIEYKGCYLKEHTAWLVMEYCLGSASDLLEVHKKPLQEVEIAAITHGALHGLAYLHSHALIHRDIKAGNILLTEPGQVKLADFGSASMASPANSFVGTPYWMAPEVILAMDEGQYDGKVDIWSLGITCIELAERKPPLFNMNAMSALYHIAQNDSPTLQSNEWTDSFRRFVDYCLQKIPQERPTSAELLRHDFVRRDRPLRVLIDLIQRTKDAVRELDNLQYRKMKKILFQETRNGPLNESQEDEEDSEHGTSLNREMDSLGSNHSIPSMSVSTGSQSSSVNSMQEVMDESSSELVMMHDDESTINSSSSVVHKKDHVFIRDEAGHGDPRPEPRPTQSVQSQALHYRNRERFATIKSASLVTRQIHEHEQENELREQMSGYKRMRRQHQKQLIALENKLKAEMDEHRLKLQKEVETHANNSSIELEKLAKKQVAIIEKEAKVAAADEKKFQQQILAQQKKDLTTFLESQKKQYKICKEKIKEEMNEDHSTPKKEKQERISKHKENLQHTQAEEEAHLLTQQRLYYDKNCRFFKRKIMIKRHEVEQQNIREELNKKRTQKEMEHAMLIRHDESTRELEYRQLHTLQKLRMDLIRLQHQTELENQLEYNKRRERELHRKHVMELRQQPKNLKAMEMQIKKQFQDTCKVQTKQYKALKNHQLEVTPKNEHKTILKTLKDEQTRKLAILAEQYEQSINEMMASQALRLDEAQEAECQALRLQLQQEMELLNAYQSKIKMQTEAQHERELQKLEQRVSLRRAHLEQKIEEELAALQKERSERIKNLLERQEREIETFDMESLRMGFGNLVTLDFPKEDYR
Source text: as §1

[3] = target: 363 human kinases (including Aurora A/B/C) (Homo sapiens, UniProt Q9Y6E0); settings: MST3/STK24; for remaining activity at 0.1 µM: 100 nM; for remaining activity at 0.1 µM / remaining activity at 0.5 µM: read-out: % Enzyme Activity (relative to DMSO controls)
Source text: as §1

[4] = target: 363 human kinases (including Aurora A/B/C) (Homo sapiens, UniProt Q6P2M8); settings: CAMK1b, [ATP] 5 µM; for remaining activity at 0.1 µM: 100 nM; for remaining activity at 0.1 µM / remaining activity at 0.5 µM: read-out: % Enzyme Activity (relative to DMSO controls)
Source text: as §1

[5] = target: 363 human kinases (including Aurora A/B/C) (Homo sapiens, UniProt O95747); settings: OSR1/OXSR1; for remaining activity at 0.1 µM: 100 nM
Source text: as §1

[6] = target: 363 human kinases (including Aurora A/B/C) (Homo sapiens, UniProt Q9H4B4); settings: PLK3; for remaining activity at 0.1 µM: 100 nM; for remaining activity at 0.1 µM / remaining activity at 0.5 µM: read-out: % Enzyme Activity (relative to DMSO controls)
Source text: as §1

[7] = target: T2, 363 human kinases (including Aurora A/B/C) (Homo sapiens, UniProt P52564); settings: MKK6; for remaining activity at 0.1 µM: 100 nM; for remaining activity at 0.1 µM / remaining activity at 0.5 µM: read-out: % Enzyme Activity (relative to DMSO controls)
T2 sequence (P52564 1-334): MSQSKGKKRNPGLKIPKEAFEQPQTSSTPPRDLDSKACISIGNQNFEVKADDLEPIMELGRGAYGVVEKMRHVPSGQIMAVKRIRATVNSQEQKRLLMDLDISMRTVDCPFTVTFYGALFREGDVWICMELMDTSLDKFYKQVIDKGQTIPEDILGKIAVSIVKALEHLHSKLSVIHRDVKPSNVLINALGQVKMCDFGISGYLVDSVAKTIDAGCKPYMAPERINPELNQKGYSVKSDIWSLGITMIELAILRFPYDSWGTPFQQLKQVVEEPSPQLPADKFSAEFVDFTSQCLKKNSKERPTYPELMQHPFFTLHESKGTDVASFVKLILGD
Source text: as §1

[8] = target: 363 human kinases (including Aurora A/B/C) (Homo sapiens, UniProt P49841); settings: GSK3b; for remaining activity at 0.1 µM: 100 nM; for remaining activity at 0.1 µM / remaining activity at 0.5 µM: read-out: % Enzyme Activity (relative to DMSO controls)
Source text: as §1

[9] = target: 363 human kinases (including Aurora A/B/C) (Homo sapiens, UniProt P06241); settings: FYN; for remaining activity at 0.1 µM: 100 nM; for remaining activity at 0.1 µM / remaining activity at 0.5 µM: read-out: % Enzyme Activity (relative to DMSO controls)
Source text: as §1

[10] = target: T3, 363 human kinases (including Aurora A/B/C) (Homo sapiens, UniProt Q08881); settings: ITK; for remaining activity at 0.1 µM: 100 nM; for remaining activity at 0.1 µM / remaining activity at 0.5 µM: read-out: % Enzyme Activity (relative to DMSO controls)
T3 sequence (Q08881 1-620): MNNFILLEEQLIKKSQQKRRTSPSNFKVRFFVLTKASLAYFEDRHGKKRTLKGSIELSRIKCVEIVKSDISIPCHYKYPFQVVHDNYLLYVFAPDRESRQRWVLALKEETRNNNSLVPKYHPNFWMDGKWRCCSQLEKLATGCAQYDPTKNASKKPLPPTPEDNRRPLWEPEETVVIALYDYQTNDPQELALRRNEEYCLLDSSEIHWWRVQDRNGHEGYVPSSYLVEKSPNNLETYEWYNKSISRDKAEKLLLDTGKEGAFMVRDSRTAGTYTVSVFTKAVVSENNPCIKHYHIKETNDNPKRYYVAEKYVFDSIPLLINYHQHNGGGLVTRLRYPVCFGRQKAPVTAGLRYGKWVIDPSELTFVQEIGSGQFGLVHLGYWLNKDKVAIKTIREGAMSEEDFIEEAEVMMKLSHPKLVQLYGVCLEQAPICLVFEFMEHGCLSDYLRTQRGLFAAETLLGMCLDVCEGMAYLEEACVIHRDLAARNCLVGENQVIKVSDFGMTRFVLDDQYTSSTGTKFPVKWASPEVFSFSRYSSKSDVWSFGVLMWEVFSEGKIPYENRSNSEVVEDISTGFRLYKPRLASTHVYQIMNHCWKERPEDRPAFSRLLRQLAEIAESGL
Source text: as §1

[11] = target: 363 human kinases (including Aurora A/B/C) (Homo sapiens, UniProt O15075); settings: DCAMKL1, [ATP] 50 µM; for remaining activity at 0.1 µM: 100 nM; for remaining activity at 0.1 µM / remaining activity at 0.5 µM: read-out: % Enzyme Activity (relative to DMSO controls)
Source text: as §1

[12] = target: 363 human kinases (including Aurora A/B/C) (Homo sapiens, UniProt P00533); settings: EGFR, [ATP] 1 µM; for remaining activity at 0.1 µM: 100 nM; for remaining activity at 0.1 µM / remaining activity at 0.5 µM: read-out: % Enzyme Activity (relative to DMSO controls)
Source text: as §1

[13] = target: 363 human kinases (including Aurora A/B/C) (Homo sapiens, UniProt Q9Y2H1); settings: STK38L/NDR2; for remaining activity at 0.1 µM: 100 nM; for remaining activity at 0.1 µM / remaining activity at 0.5 µM: read-out: % Enzyme Activity (relative to DMSO controls)
Source text: as §1

[14] = read-out: % Enzyme Activity (relative to DMSO controls)

Sequence of 363 human kinases (including Aurora A/B/C) (Homo sapiens, UniProt Q9Y2H1) (Q9Y2H1 whole entry): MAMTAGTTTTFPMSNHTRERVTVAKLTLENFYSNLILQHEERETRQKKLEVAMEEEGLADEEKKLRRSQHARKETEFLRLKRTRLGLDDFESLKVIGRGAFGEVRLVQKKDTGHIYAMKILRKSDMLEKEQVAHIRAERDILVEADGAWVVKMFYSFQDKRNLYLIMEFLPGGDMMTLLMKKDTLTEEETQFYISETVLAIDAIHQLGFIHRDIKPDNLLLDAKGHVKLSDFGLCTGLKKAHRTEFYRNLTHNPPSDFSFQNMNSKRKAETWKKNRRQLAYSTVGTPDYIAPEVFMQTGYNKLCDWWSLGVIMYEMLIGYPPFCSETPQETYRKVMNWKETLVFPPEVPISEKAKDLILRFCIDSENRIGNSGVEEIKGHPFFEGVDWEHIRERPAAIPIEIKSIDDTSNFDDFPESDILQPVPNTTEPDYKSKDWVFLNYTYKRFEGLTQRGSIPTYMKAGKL
Sequence of 363 human kinases (including Aurora A/B/C) (Homo sapiens, UniProt P06241) (P06241 whole entry): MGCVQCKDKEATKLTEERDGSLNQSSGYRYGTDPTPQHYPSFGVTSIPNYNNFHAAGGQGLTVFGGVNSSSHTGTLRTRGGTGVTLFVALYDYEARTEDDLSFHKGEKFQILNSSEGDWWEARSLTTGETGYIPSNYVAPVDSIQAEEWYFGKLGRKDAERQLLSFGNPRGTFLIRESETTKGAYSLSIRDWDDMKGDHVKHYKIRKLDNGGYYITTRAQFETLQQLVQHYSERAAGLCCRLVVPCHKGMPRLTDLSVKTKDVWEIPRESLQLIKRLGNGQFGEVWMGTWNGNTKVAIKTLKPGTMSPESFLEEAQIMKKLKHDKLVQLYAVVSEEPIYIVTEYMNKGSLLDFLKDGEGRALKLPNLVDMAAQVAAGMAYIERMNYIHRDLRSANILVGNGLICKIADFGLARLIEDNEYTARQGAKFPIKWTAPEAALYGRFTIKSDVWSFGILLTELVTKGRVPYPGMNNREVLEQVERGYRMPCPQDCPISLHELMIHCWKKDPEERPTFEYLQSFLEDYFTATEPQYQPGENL
Sequence of 363 human kinases (including Aurora A/B/C) (Homo sapiens, UniProt P49841) (P49841 whole entry): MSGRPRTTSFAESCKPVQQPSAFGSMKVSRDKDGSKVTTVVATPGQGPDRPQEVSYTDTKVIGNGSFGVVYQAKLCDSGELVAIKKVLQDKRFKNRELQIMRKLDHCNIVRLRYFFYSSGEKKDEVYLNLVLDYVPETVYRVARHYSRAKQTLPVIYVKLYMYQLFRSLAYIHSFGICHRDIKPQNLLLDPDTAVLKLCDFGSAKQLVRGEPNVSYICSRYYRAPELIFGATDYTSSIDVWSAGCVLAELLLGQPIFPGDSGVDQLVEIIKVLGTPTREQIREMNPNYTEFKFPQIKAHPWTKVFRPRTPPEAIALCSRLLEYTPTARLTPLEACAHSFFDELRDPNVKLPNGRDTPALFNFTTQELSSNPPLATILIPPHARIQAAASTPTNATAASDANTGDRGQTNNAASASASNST
Sequence of 363 human kinases (including Aurora A/B/C) (Homo sapiens, UniProt Q9H4B4) (Q9H4B4 whole entry): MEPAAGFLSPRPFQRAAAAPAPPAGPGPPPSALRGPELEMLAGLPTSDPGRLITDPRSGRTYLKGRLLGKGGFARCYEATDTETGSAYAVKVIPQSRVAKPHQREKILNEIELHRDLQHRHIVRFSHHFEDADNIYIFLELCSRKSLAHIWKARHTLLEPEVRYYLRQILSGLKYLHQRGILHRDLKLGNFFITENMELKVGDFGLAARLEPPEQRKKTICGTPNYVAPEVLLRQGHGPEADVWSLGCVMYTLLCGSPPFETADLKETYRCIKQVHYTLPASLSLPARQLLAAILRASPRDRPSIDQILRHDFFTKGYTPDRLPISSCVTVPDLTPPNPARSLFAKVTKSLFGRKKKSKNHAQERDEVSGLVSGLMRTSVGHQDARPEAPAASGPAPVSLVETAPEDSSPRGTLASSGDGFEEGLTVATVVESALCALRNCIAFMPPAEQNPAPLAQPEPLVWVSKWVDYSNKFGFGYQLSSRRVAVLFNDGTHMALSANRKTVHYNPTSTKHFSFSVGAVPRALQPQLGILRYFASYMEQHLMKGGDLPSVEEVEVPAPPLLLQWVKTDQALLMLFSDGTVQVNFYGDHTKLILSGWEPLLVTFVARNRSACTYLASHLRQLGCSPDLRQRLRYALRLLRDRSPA
Sequence of 363 human kinases (including Aurora A/B/C) (Homo sapiens, UniProt P00533) (P00533 25-1210): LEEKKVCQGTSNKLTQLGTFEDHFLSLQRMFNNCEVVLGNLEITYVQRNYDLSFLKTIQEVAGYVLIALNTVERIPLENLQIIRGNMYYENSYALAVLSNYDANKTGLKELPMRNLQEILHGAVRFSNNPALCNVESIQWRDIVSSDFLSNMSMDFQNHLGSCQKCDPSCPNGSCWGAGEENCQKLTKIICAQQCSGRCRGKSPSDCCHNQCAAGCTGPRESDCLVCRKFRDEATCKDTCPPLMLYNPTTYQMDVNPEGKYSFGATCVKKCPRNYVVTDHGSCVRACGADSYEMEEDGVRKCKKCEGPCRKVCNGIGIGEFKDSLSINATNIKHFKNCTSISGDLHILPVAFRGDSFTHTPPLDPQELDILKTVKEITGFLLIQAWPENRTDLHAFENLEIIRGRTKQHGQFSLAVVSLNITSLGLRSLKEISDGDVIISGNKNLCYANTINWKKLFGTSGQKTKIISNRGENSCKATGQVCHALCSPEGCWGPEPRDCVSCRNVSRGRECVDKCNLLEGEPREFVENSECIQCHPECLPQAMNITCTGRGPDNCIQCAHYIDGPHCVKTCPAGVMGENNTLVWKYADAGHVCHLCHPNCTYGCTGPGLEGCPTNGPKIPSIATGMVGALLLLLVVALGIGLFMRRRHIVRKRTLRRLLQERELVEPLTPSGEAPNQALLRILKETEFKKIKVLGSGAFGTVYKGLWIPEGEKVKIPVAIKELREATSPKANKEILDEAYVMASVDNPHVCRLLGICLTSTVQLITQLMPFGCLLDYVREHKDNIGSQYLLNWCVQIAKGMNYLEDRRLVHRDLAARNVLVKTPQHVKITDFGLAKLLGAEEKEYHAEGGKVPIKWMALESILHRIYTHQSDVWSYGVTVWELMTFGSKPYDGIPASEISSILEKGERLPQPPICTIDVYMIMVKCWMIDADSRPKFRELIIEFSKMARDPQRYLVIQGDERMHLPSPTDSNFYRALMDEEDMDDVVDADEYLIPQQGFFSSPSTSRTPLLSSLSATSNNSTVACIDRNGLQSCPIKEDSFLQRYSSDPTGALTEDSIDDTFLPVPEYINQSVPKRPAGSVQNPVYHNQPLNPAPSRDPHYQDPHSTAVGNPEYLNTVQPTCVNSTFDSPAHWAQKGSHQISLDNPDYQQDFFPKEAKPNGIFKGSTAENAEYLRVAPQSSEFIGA
Sequence of 363 human kinases (including Aurora A/B/C) (Homo sapiens, UniProt O15075) (O15075 whole entry): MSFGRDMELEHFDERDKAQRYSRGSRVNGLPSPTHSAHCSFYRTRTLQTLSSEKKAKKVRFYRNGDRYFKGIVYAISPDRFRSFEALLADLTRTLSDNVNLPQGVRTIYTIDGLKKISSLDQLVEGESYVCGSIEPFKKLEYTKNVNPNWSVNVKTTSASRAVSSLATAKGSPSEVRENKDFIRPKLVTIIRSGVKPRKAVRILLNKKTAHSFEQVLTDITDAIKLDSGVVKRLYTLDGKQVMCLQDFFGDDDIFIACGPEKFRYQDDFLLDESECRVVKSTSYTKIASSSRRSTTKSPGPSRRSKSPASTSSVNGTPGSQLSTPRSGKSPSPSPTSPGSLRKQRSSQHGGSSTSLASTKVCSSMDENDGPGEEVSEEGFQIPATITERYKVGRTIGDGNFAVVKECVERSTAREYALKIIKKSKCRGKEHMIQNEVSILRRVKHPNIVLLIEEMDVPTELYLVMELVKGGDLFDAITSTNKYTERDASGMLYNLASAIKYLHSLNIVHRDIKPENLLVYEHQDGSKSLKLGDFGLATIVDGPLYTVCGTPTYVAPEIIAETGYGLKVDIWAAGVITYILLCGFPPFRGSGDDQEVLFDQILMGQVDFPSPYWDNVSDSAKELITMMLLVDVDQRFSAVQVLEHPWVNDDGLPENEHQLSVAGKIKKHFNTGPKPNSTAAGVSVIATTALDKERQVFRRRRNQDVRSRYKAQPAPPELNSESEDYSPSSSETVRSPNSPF
Sequence of 363 human kinases (including Aurora A/B/C) (Homo sapiens, UniProt Q9Y6E0) (Q9Y6E0 whole entry): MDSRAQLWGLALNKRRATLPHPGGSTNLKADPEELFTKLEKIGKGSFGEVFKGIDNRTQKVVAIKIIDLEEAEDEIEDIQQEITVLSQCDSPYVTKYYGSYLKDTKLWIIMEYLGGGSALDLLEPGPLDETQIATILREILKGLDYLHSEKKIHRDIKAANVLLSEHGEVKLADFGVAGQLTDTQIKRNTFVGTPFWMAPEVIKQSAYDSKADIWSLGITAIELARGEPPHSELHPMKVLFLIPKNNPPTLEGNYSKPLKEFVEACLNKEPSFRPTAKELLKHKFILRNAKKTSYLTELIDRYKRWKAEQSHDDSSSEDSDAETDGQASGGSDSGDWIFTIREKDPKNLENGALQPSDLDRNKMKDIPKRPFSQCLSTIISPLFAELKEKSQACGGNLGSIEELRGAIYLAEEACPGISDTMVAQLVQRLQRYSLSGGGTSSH
Sequence of 363 human kinases (including Aurora A/B/C) (Homo sapiens, UniProt O95747) (O95747 whole entry): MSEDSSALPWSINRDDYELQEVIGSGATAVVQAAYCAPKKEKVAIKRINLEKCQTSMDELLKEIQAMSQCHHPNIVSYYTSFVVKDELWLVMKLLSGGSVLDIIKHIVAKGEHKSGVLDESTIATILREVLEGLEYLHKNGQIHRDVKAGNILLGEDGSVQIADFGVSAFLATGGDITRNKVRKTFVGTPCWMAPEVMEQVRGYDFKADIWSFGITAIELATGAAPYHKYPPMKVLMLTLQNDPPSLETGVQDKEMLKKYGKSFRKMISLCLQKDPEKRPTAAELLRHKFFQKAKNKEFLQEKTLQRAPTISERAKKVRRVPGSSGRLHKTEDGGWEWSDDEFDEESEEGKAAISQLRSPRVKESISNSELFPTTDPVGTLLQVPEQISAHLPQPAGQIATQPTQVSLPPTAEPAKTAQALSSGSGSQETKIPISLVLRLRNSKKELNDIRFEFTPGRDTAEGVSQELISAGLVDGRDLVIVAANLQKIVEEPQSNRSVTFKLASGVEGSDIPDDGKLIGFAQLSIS

Compound | remaining activity at 0.1 µM [1] | remaining activity at 0.1 µM [2] | remaining activity at 0.1 µM [3] | remaining activity at 0.1 µM [4] | remaining activity at 0.1 µM [5, 14] | remaining activity at 0.1 µM [6] | remaining activity at 0.1 µM [7] | remaining activity at 0.1 µM [8] | remaining activity at 0.1 µM [9] | remaining activity at 0.1 µM [10] | remaining activity at 0.1 µM [11] | remaining activity at 0.1 µM [12] | remaining activity at 0.1 µM [13] | remaining activity at 0.5 µM ([1]; 500 nM) | remaining activity at 0.5 µM ([2]; 500 nM) | remaining activity at 0.5 µM ([3]; 500 nM) | remaining activity at 0.5 µM ([4]; 500 nM) | remaining activity at 0.5 µM ([6]; 500 nM) | remaining activity at 0.5 µM ([7]; 500 nM) | remaining activity at 0.5 µM ([8]; 500 nM) | further results
CCn1cc(-c2ccnc3[nH]c(-c4cccc(CN(C)C)c4)cc23)c(-c2ccc(NC(=O)N(C)C)cc2)n1 [GSK1070916] | 98% | 174% | 85.4% | 99.4% | 95% | 101% | 85.3% | 102% | 84.3% | 77.7% | 114% | 54.6% | 95.7% | – | – | – | – | – | – | – | –
O=C(O)[C@]1(Cc2cccc(Nc3nccs3)n2)CC[C@@H](Oc2cccc(Cl)c2F)CC1 [MK-5108] | 97.1% | 80.2% | 102% | 89.2% | 98.9% | 103% | 95.4% | 37.7% | 43.9% | 89% | 108% | 67.3% | 99.6% | 98.5% | 110% | 87.9% | 102% | 104% | 76.7% | 6.95% | remaining activity at 0.5 µM ([9]; 500 nM): 18%; remaining activity at 0.5 µM ([10]; 500 nM): 46.3%; remaining activity at 0.5 µM ([11]; 500 nM): 131%; remaining activity at 0.5 µM ([12]; 500 nM): 33.9%; remaining activity at 0.5 µM ([13]; 500 nM): 97.8%
O=C(c1cccc(Cl)c1F)N1CCN(Cc2cccc(Nc3nccs3)n2)CC1 [MK-8745] | – | – | – | – | – | – | – | – | – | – | – | – | – | 99.5% | 95.2% | 85.3% | 100% | 102% | 68% | 29.6% | % Enzyme Activity (relative to DMSO controls) ([1]; 500 nM): 99.52%; % Enzyme Activity (relative to DMSO controls) ([2]; 500 nM): 93.76%; % Enzyme Activity (relative to DMSO controls) ([3]; 500 nM): 84.91%; % Enzyme Activity (relative to DMSO controls) ([4]; 500 nM): 98.69%; % Enzyme Activity (relative to DMSO controls) ([5]; 500 nM): 93.31%; remaining activity at 0.5 µM ([5]; 500 nM, read-out: % Enzyme Activity (relative to DMSO controls)): 93.3%; % Enzyme Activity (relative to DMSO controls) ([6]; 500 nM): 99.37%; % Enzyme Activity (relative to DMSO controls) ([7]; 500 nM): 66.22%; % Enzyme Activity (relative to DMSO controls) ([8]; 500 nM): 28.78%; % Enzyme Activity (relative to DMSO controls) ([9]; 500 nM): 57.68%; remaining activity at 0.5 µM ([9]; 500 nM): 57.8%; % Enzyme Activity (relative to DMSO controls) ([10]; 500 nM): 102.90%; remaining activity at 0.5 µM ([10]; 500 nM): 104%; % Enzyme Activity (relative to DMSO controls) ([11]; 500 nM): 138.94%; remaining activity at 0.5 µM ([11]; 500 nM): 142%; % Enzyme Activity (relative to DMSO controls) ([12]; 500 nM): 97.09%; remaining activity at 0.5 µM ([12]; 500 nM): 99.1%; % Enzyme Activity (relative to DMSO controls) ([13]; 500 nM): 96.64%; remaining activity at 0.5 µM ([13]; 500 nM): 98.4%
